In US12662491B2 (Redona Therapeutics, Inc., priority 2020, dated 2026):

The molecules below were run against T1, Zcchc11 enzyme (Homo sapiens, UniProt Q5TAX3) (assay: TUTase assay (Zcchc11 assay, Lin28a-dependent polyuridylation of pre-let-7)). Conditions: LIN28A 10 nM, Zcchc11 0.2 nM, 5′-fluorescein pre-let-7 miRNA 2 nM, UTP 5 uM, room temperature, 30 minutes pre-incubation; read-out: Potency Lin28a-dep Z11 IC50.
T1 construct: made in house; host or cells: HEK293 cells (Zcchc11); E. coli Rosetta II (LIN28A)
T1 sequence (Q5TAX3 212-1420): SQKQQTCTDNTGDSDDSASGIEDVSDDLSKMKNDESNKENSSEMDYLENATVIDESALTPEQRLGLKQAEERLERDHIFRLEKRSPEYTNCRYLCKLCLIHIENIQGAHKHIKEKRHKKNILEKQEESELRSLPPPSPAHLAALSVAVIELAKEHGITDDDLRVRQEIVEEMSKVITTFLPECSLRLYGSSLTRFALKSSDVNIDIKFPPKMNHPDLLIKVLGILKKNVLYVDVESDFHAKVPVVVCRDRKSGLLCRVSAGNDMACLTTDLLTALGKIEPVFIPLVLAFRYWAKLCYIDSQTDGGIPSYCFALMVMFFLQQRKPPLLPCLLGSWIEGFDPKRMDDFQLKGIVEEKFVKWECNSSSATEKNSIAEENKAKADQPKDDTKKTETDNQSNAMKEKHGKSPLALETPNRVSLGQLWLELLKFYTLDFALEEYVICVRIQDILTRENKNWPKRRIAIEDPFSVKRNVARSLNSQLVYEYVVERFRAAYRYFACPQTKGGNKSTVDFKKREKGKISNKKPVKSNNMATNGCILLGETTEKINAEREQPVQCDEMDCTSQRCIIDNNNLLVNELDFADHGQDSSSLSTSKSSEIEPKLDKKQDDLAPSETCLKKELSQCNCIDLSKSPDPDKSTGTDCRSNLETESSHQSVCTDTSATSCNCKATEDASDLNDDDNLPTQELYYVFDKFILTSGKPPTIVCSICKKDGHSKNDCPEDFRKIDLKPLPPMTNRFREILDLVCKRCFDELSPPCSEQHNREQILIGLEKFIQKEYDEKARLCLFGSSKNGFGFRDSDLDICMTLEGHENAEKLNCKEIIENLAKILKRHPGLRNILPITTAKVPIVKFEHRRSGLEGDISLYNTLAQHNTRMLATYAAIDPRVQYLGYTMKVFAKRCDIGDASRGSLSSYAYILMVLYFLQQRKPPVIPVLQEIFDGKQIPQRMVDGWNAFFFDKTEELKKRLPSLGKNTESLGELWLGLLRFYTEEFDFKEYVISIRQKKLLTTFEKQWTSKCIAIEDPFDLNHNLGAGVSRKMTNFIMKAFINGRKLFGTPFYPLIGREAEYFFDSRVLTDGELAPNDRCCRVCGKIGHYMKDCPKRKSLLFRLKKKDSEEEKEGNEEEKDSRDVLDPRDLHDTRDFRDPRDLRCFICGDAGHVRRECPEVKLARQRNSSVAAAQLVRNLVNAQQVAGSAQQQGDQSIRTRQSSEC
Format: biochemical
Experimental: The purpose of the Zcchc11 assay is to determine compound potency against Zcchc11 enzyme through the measurement of IC50. Compound inhibition is measured as a function of polyuridine tails added to RNA substrates in the presence of active TUTase, UTP, and inhibitor. The Zcchc11 assay was done in a black, non-binding, 384 well plate (Corning #3575). All steps were performed at room temperature. For a typical assay, a 29 ul aliquot of assay buffer (50 mM HEPES pH 7.3, 150 mM KCl, 5 mM MgCl2, 10 mM DTT, 0.01% Triton X-100, 40 U/ml RNAsin (Promega)) containing LIN28A protein (final concentration: 10 nM) is added to each well. Next, 1 ul of compound in 100% DMSO is transferred from a compound dilution plate in which the compound is serially diluted. Next, 10 ul of a 5× mix of Zcchc11 and RNA substrate (5′-fluorescein labeled pre-let-7 miRNA (Dharmacon)) is added (final concentrations: 0.2 nM and 2 nM, respectively). The plate is placed on a plate shaker for 30 seconds to produce mixing, then incubated for 30 minutes. Next, 10 ul of a 5× mix of UTP and the quenching probe (3′-rhodamine labeled A20, polyadenosine nucleotide, (IDT)) is added (final concentrations: 5 uM and 4 nM, respectively). The plate is immediately placed in a Biotek Cytation 5 plate reader, and the time-dependent decrease in fluorescein fluorescence resulting from annealing of the A20 probe to polyuridine tails is recorded, using the kinetics mode of the reader. Reaction rates are obtained using linear fits to the early portion of progress curves. IC50 values are calculated using a four parameter fit with 100% enzyme activity determined from the DMSO control and 0% activity from control samples lacking UTP.
The LIN28A protein was expressed in and purified from E. coli, strain Rosetta II (Novagen). The entire coding sequence of the human, wild-type protein was cloned into expression vector pMAL (NEB), down-stream from a maltose-binding protein tag. The linker sequence contained a TEV protease cleavage site. The protein was purified from bacterial extracts using an MBP-Trap column (GE Healthcare Life Sciences), followed by tag cleavage and removal of the tag by ion-exchange chromatography. When necessary, contaminating bacterial RNA was removed using the procedure describe by Faehnle C R. et al. (2017) Multi-domain utilization by TUT4 and TUT7 in control of let-7 biogenesis. Nat Struct Mol Biol, 24:658-665.
The Zcchc11 protein was expressed in and purified from HEK293 cells. A truncated protein comprising residues 212-1420 of the human sequence was cloned into expression vector pTT5 (Viva Biotech) down-stream from a maltose-binding protein tag. The linker sequence contained a TEV protease cleavage site, and a FLAG tag was added to the carboxyl terminus of the protein. The protein was purified from cell extracts using an MBP-Trap column (GE Healthcare Life Sciences), followed by tag cleavage and further enrichment of the full length construct using anti-FLAG affinity media (Sigma Aldrich).
“+” represents an IC50 value that is greater than 50 μM; “++” represents an IC50 value that is greater than 10 μM and equal to or less than 50 μM; “+++” represents an IC50 value that is greater than 1 μM and equal to or less than 10 μM; and “++++” represents an IC50 value that is equal to or less than 1 μM.
`C[C@H]1CCN(c2cc3c(cc2Cl)c(=O)c(C(=O)O)cn3-c2ccc(N3CC(N(C)C)C3)nc2)[C@H]1COc1ncccc1Cl` (racemic) [Example 44, rac-6-chloro-7-((2R,3S)-2-(((3-chloropyridin-2-yl)oxy)methyl)-3-methylpyrrolidin-1-yl)-1-(6-(3-(dimethylamino)azetidin-1-yl)pyridin-3-yl)-4-oxo-1,4-dihydroquinoline-3-carboxylic acid] was tested, and the IC50 was ≤ 1000 nM.

Same assay, conditions: Lin28a-dependent Zcchc11 (Z11) TUTase activity; read-out: Potency Lin28a-dep Z11 IC50
With `COc1ccc(F)c(OC[C@H]2C[C@H]3C[C@H]3N2c2cc3c(cc2F)c(=O)c(C(=O)O)cn3-c2ccnc(N)c2)n1` (racemic) [Compound 235, Rac-1-(2-aminopyridin-4-yl)-6-fluoro-7-((1R,3R,5R)-3-(((3-fluoro-6-methoxy-pyridin-2-yl)oxy)methyl)-2-azabicyclo [3.1.0]hexan-2-yl)-4-oxo-1,4-dihydro-quinoline-3-carboxylic acid] the IC50 was ≤ 1000 nM. `Cn1cc(-n2cc(C(=O)O)c(=O)c3cc(C#N)c(N4CCCC4COc4ncccc4F)cc32)cn1` (racemic) [Compound 245, rac-(R)-6-cyano-7-(2-(((3-fluoropyridin-2-yl)oxy)methyl)pyrrolidin-1-yl)-1-(1-methyl-1H-pyrazol-4-yl)-4-oxo-1,4-dihydro-quinoline-3-carboxylic acid] was tested, and the IC50 was ≤ 1000 nM. With `COCCN(C)C1CN(c2ccc(-n3cc(C(=O)O)c(=O)c4cc(F)c(N5CC[C@H](C)[C@@H]5COc5ncccc5Cl)cc43)cn2)C1` (racemic) [Compound 262, rac-7-((2R,3S)-2-(((3-chloropyridin-2-yl)oxy)methyl)-3-methyl-pyrrolidin-1-yl)-6-fluoro-1-(6-(3-((2-methoxy-ethyl)(methyl)amino)azetidin-1-yl)pyridin-3-yl)-4-oxo-1,4-dihydro-quinoline-3-carboxylic acid] the IC50 was ≤ 1000 nM. For `O=C(O)c1cn(-c2cnc(OCc3ccccc3)cn2)c2cc(N3CCC[C@@H]3COc3ncccc3Cl)c(Cl)cc2c1=O` (racemic) [Compound 263, rac-(R)-1-(5-(benzyloxy)pyrazin-2-yl)-6-chloro-7-(2-(((3-chloropyridin-2-yl)oxy)methyl)pyrrolidin-1-yl)-4-oxo-1,4-dihydro-quinoline-3-carboxylic acid], the IC50 was ≤ 1000 nM. For `CN(C)C1CN(c2ccc(-n3cc(C(=O)O)c(=O)c4cc(Cl)c(N5CCC[C@@H]5COc5nc6c(cc5Cl)ncn6C)cc43)cn2)C1` (racemic) [Compound 274, rac-(R)-6-chloro-7-(2-(((6-chloro-3-methyl-3H-imidazo [4,5-b]pyridin-5-yl)oxy)methyl)pyrrolidin-1-yl)-1-(6-(3-(dimethyl-amino)azetidin-1-yl)pyridin-3-yl)-4-oxo-1,4-dihydro-quinoline-3-carboxylic acid], the IC50 was ≤ 1000 nM. In the case of `Cn1cc(-n2cc(C(=O)O)c(=O)c3cc(F)c(N4CCC[C@@H]4COc4ncccc4F)cc32)cn1` (racemic) [Compound 290, rac-(R)-6-fluoro-7-(2-(((3-fluoropyridin-2-yl)oxy)methyl)pyrrolidin-1-yl)-1-(1-methyl-1H-pyrazol-4-yl)-4-oxo-1,4-dihydro-quinoline-3-carboxylic acid], the IC50 is reported as ≤ 1000 nM. In the case of `CN(C)C1CN(c2ccc(-n3cc(C(=O)O)c(=O)c4cc(Cl)c(N5CC(F)(F)C[C@@H]5COc5ncccc5Cl)cc43)cn2)C1` (racemic) [Compound 305, rac-(R)-6-chloro-7-(2-(((3-chloropyridin-2-yl)oxy)methyl)-4,4-difluoro-pyrrolidin-1-yl)-1-(6-(3-(dimethyl-amino)azetidin-1-yl)pyridin-3-yl)-4-oxo-1,4-dihydro-quinoline-3-carboxylic acid], the IC50 is reported as ≤ 1000 nM. With `CN(C)C1CN(c2ccc(-n3cc(C(=O)O)c(=O)c4cc(Cl)c(N5CC(c6cccnn6)C[C@@H]5COc5ncccc5Cl)cc43)cn2)C1` (mixture of isomers) [Compound 307, rac-6-chloro-7-((2R)-2-(((3-chloropyridin-2-yl)oxy)methyl)-4-(pyridazin-3-yl)pyrrolidin-1-yl)-1-(6-(3-(dimethyl-amino)azetidin-1-yl)pyridin-3-yl)-4-oxo-1,4-dihydro-quinoline-3-carboxylic acid] the IC50 was ≤ 1000 nM. For `O=C(O)c1cn2c3cc(c(F)cc3c1=O)N1CCC[C@@H]1COc1ncccc1OCCOc1ccc-2cc1` (racemic) [Compound 312, rac-(R)-26-fluoro-24-oxo-21,24-dihydro-5,7,10-trioxa-2(1,7)-quinolina-6(2,3)-pyridina-3(1,2)-pyrrolidina-1(1,4)-benzenacyclo-decaphane-23-carboxylic acid formic acid], the IC50 was > 50000 nM. In the case of `NCCOc1cccnc1OC[C@H]1CCCN1c1cc2c(cc1Cl)c(=O)c(C(=O)O)cn2-c1ccc(Br)nc1` (racemic) [Compound 313, rac-(R)-7-(2-(((3-(2-aminoethoxy)pyridin-2-yl)oxy)methyl)pyrrolidin-1-yl)-1-(6-bromopyridin-3-yl)-6-chloro-4-oxo-1,4-dihydro-quinoline-3-carboxylic acid], the IC50 is reported as ≤ 1000 nM. `CN(C)C1CN(c2ccc(-n3cc(C(=O)O)c(=O)c4cc(Cl)c(N5CCC[C@@]5(C)COc5ncccc5Cl)cc43)cn2)C1` (racemic) [Compound 314, rac-(R)-6-chloro-7-(2-(((3-chloropyridin-2-yl)oxy)methyl)-2-methyl-pyrrolidin-1-yl)-1-(6-(3-(dimethyl-amino)azetidin-1-yl)pyridin-3-yl)-4-oxo-1,4-dihydro-quinoline-3-carboxylic acid formic acid] was tested, and the IC50 was ≤ 1000 nM. In the case of `CN(C)C1CN(c2ccc(-n3cc(C(=O)O)c(=O)c4cc(Cl)c(N5CC(c6ccccn6)C[C@@H]5COc5ncccc5Cl)cc43)cn2)C1` (mixture of isomers) [Compound 315, rac-6-chloro-7-((2R)-2-(((3-chloropyridin-2-yl)oxy)methyl)-4-(pyridin-2-yl)pyrrolidin-1-yl)-1-(6-(3-(dimethyl-amino)azetidin-1-yl)pyridin-3-yl)-4-oxo-1,4-dihydro-quinoline-3-carboxylic acid], the IC50 is reported as ≤ 1000 nM.
